Measured values: US10173974B1, “Natural product-based synthesis of novel anti-infective isothiocyanate- and isoselenocyanate-functionalized amphilectane diterpenes” (priority 2015, dated 2019)
pIC50: −log10 of the molar value. In brackets after ≈: the same amount, converted by molar mass. Like-named read-outs stand apart in the source and are kept apart here.

Assays:
[1] = test system: P. falciparum Dd2 (drug resistant); test: SYBR Green parasite proliferation assay, P. falciparum Dd2 strain; format: cell-based, Plasmodium falciparum
[2] = test system: P. falciparum 3D7 (chloroquine-sensitive); test: SYBR Green parasite proliferation assay, P. falciparum 3D7 strain; format: cell-based, Plasmodium falciparum
Mtb H37Rv (ATCC 27 294) = test: Microplate Alamar blue assay (MABA), antitubercular activity; format: cell-based, Mycobacterium tuberculosis; settings: for MABA MIC: Mtb H37Rv
in vitro = settings: African green monkey
[3] = test system: Vero cell line ATCC CRL-1586
[4] = P. falciparum Dd2 (drug resistant), 72 h incubation, in vitro growth inhibition
[5] = P. falciparum 3D7 (chloroquine-sensitive), 72 h incubation, in vitro growth inhibition

Compound	MABA MIC (Mtb H37Rv (ATCC 27 294)) [µM]	pIC50 [1, 4]	pIC50 [2, 5]	further results
C=C(C)C[C@@H]1C[C@H](C)[C@H]2CC[C@H](C)[C@@]3(N=C=[Se])CCC(=C)[C@@H]1[C@H]23 [Compound 6, 8-Isoselenocyanoamphilecta-11(20),15-diene]	2.1			pIC50 [1]: 6.83; pIC50 [2]: 6.72
C=C1CC[C@@]2(N=C=S)[C@H]3[C@H](CC[C@@H]2C)[C@@H](C)C[C@@H](CC(C)(C)N=C=S)[C@H]13 [Compound 2, 8,15-Diisothiocyano-11(20)-amphilectene]	99.1	4.94	4.93	
CCN(CC)CCCC(C)Nc1ccnc2cc(Cl)ccc12 (centres unmarked) [CQ, chloroquine, reference compound]				pIC50 ([1]; Plasmodium falciparum, P. falciparum Dd2 (drug resistant), 72 h incubation, in vitro growth inhibition): 7.28; pIC50 ([2]; Plasmodium falciparum, P. falciparum 3D7 (chloroquine-sensitive), 72 h incubation, in vitro growth inhibition): 7.96
CO[C@H]1/C=C/O[C@@]2(C)Oc3c(C)c(O)c4c(O)c(c(/C=N/N5CCN(C)CC5)c(O)c4c3C2=O)NC(=O)/C(C)=C\C=C\[C@H](C)[C@H](O)[C@@H](C)[C@@H](O)[C@@H](C)[C@H](OC(C)=O)[C@@H]1C [RMP, rifampicin, reference compound]				MIC (Mtb H37Rv (ATCC 27 294); Mycobacterium tuberculosis, read-out: MABA MIC): 0.09 µM (≈ 0.0741 µg/mL); CC50 (in vitro): > 100 µM
C=C1CC[C@@]2(N=C=[Se])[C@H]3[C@H](CC[C@@H]2C)[C@@H](C)C[C@@H](CC(C)(C)N=C=[Se])[C@H]13 [Compound 5, 8,15-Diisoselenocyano-11(20)-amphilectene]	3.9	8.18	8.60	
[C-]#[N+]C(C)(C)CC1CC(C)C2CCC(C)C3([N+]#[C-])CCC(=C)C1C23 (single isomer, unassigned; (-)) [Compound 1, (−)-8,15-diisocyano-11(20)-amphilectene, reference compound]	9.8	8.51	8.92	
8-Isothiocyano-15-isoselenocyano-11(20)-amphilectene (3) and 8-Isoselenocyano-15-isothiocyano-11(20)-amphilectene (4) [Compound 3 and 4]				CC50 [3]: 78.1 µM
